From US20210236577A1, “LIVESTOCK FEED ADDITIVE” (DELACON BIOTECHNIK GMBH, priority 2018, published 2021) come the findings set out here.

The test system of one series is heat shock protein HSP70. The series is classed as cell-based, Human. The source says: ID NO:1); β-actin reverse: [NT] NO:2); HSP70 forward: [NT] ID NO:3); HSP70 reverse: [NT] ID NO:4).
For series [1], the system named is broilers exposed to heat stress. The series is described as follows: Trial IV: growth performance of broilers under heat stress, naringin dose levels vs betaine. The series is classed as in vivo, Ross 308 male broilers. As to conditions: for effect on body weight and daily body weight gain vs negative control: pre-heat stress period d 0 to 21. From the text:
1152 one-day old Ross 308 male broilers from a total of 1400 were used in the experiment. Any day-old broilers, showing signs of health problems, injury, or of being too small or in poor condition were excluded in the selection process. Broilers were sexed at the hatchery. All day-old chicks were individually weighted and grouped according to weight. The birds were then assigned to the 36 pens (6 repetitions of 6 treatments), and each pen initially consisted of 34 broilers. On day 4 of the experiment in each pen, the weakest 2 broilers were removed and all pens were equated to 32 birds per pen by negative selection. Birds of the negative control group were fed the basal diet without any further phytogenic additive. The reference group was fed a diet providing 500 mg/kg feed betaine from a natural betaine source (Actibeet®, Agrana). To the diets of groups 3, 4, 5 and 6 the phytogenic premixes with compound “B” were added to achieve final dietary Naringin concentrations of 12/18/24/30 mg/kg of feed.
The trial was carried out at the Delacon Research Facility (Stošíkovice na Louce, Czech Republic). Birds were kept in floor pens, each having an area of 2.1 m^2 (1,65×1,275 m; 2.03 m^2 of usable area=not counting the space occupied with the feeder), with fresh wood shavings as bedding material. Stocking density at the end of the trial was 14,78 chicks/m^2 (38.7 kg/m^2). The building was supplied with artificial, programmable lights, automated central heating and forced ventilation. Temperature was set according to the breeders' recommendations from day 1 to day 21 of age. The onset of heat stress was on day 22 of age. Thereby a cyclic heat stress regime was applied. The heat stress period was from 09:00 in the morning until 17:00 in the afternoon. The average house temperature in this period was 34° C. The “cooling night period” was from 19:00 in the evening until 07:00 in the morning. The average room temperature in this period was 26° C. The time intervals from 07:00 to 09:00 in the morning and from 17:00 to 19:00 in the evening was used to gradually increase or decrease the temperature to 34° C. and 26° C., respectively. In order to increase the humidity of the chicken house under the heat stress regime, towels on the heat panels were moistened 5 times per hour during the heat stress period. Relative humidity was maintained at about 70-80%.
Birds were fed a basal diet, based on wheat, corn, and soybean meal. For each feeding period (starter/grower, grower/finisher) feed was calculated to be iso-nutritive (Table 6). Dietary nutrient concentrations were calculated to fulfill the current recommendations of the broilers according to the breeders' recommendations. According to the applied 2-phase-feeding, a starter/grower diet was offered from days 1 to 21 and a grower/finisher diet from days 22 to 42. The composition of the diets, used in trials IV, V, VI, for the single phases and the calculated nutrient contents are given in Table. All diets were offered to the birds as pelleted feed.
The statistical analyses were performed with the software package SAS. After checking the homogeneity of the data, means were compared by the usual test procedures (Tukey test). Statistical significance was declared at P 0.05, with 0.05<P 0.10 considered as a near-significant trend.

For series [2] the test system is unchanged. The series is described as follows: Trial V: growth performance of broilers under heat stress, combinations of naringin with different 1,8-cineole concentrations. The series is classed as in vivo, Ross 308 male broilers. How it is done: In the dose response trial for compound “B” (Trial IV) beneficial effects on the performance of the broilers under heat stress could be observed. […] Consequently in this trial the additional value of adding 1,8-Cineole (compound “A”) in a dose-dependent manner (6/12/24 mg/kg feed) to compound “B” at constantly 12 mg Naringin/kg diet was evaluated. The addition of 500 mg/kg betaine alone or 500 mg betaine+12 mg 1,8-Cineole/kg served as reference groups.
1224 one-day old Ross 308 male broilers from a total of 1400 were used in the experiment. Any day-old broilers, showing signs of health problems, injury, or of being too small or in poor condition were excluded in the selection process. Broilers were sexed at the hatchery. All day-old chicks were individually weighted and grouped according to weight. The birds were then assigned to the 36 pens (6 repetitions of 6 treatments), and each pen initially consisted of 34 broilers. On day 4 of the experiment in each pen, the weakest 2 broilers were removed and all pens were equated to 32 birds per pen by negative selection.
Birds of the negative control group were fed the basal diet without any further phytogenic additive. […]

Where two headings read alike, the source gives them in different places.

With `C[N+](C)(C)CC(=O)[O-]` [betaine, N,N,N-Trimethylammonioacetate, reference compound], in the series on heat shock protein HSP70 (CaCo2, 41° C. 1 hour, 100, 250 and 1000 mg/L betaine), the “heat shock protein 70 induction compared to untreated control cells” value was −7 to −19%. The “heat shock protein 70 response compared to untreated control cells” value in the series with heat shock protein HSP70 (CaCo2, 41° C. 1 hour, 500 and 2000 mg/L betaine, non-significant) is listed as “+10 to +12%”. In addition, the “body weight at day 42 compared with untreated control” value in series [1] (heat stress d22 to 42, betaine 500 mg/kg) was “+170 g”. The “effect on body weight and daily body weight gain vs negative control” value in series [1] (betaine 500 mg/kg) is recorded as “+4.9%”. In addition, the “increase of daily weight gain compared to the negative control” value in series [2] (pre-heat stress period, betaine 500 mg/kg alone or plus 12 mg/kg compound A) turned out to be 2.5%. The “growth promoting effect / increase of growth performance compared to the negative control” value in series [2] (under heat stress conditions d22 to 42, betaine 500 mg/kg, all tested combinations AB) is “+2.0%”.
With `C[C@@H]1O[C@@H](O[C@H]2[C@H](Oc3cc(O)c4c(c3)O[C@H](c3ccc(O)cc3)CC4=O)O[C@H](CO)[C@@H](O)[C@@H]2O)[C@H](O)[C@H](O)[C@H]1O` [B, Naringin], the “HSP 70 induction compared to untreated control cells” value with heat shock protein HSP70 (CaCo2, 41° C. 1 hour, 60 mg Naringin/L, adverse effect) is recorded as −23%. Moreover, the “increase in HSP 70 induction compared to untreated control cells” value in the series on heat shock protein HSP70 (CaCo2, 41° C. 1 hour, Naringin 12 to 30 mg/L, significant) is recorded as “+24 to +27%”. In addition, in the series with heat shock protein HSP70 (CaCo2, 41° C. 1 hour, lowest Naringin concentration tested (6 mg/L), not significant), the “increase of HSP 70 induction compared to untreated control cells” value is “+16%”. For the same molecule, the “performance values (body weight/weight gain/FCR) vs betaine reference group” value in series [1] (broilers under heat stress, 12 mg/kg Naringin complete diet vs 500 mg/kg betaine) is given as “slightly better than in the betaine reference group”. The “body weight at day 42 compared with untreated control” value in series [1] (heat stress d22 to 42, compound B groups 12-30 mg/kg) was “+80 to +140 g”. Further, the “final body weight compared to the negative control” value in series [1] (heat stress d22 to 42, lowest compound B dose (12 mg/kg)) was “+140 g”. For the same molecule, the “effect on body weight and daily body weight gain vs negative control” value in series [1] (all doses 12, 18, 24 and 30 mg/kg diet) is “+2.79 to +13%”; in series [1] (lowest dose 12 mg/kg, significant), “+13%”.
On to `CC12CCC(CC1)C(C)(C)O2` [A, 1,8 Cineole], for which the “increase in HSP 70 induction compared to control cells” value in the series with heat shock protein HSP70 (CaCo2, 41° C. 1 hour, 7.5 mg 1,8 Cineole/L) is 15%. In addition, the “increase of HSP 70 gene expression” value is on record as 22% with heat shock protein HSP70 (CaCo2, 41° C. 1 hour, 15 mg 1,8-Cineole/L) and 24% with heat shock protein HSP70 (CaCo2, 41° C. 1 hour, 30 mg 1,8-Cineole/L). Besides, in the series with heat shock protein HSP70 (CaCo2, 41° C. 1 hour, highest dose tested, 45 mg 1,8-Cineole/L), the “increase of HSP 70 expression” value is listed as 44%. In the series on heat shock protein HSP70 (CaCo2 under heat stress, at the tested levels (not given)), the “increase of HSP 70 expression / induction, single substances alone vs combination (FIG. 3 E)” value was 20.8%.
For Betalain [C], the “HSP 70 induction in CaCo2 cells over the control (in words)” value in the series with heat shock protein HSP70 (Caco-2) is “improve HSP 70 induction”.
